The source of these data is ChEMBL document CHEMBL3045517, “Tolerance of tomato, pepper and potato to pre-emergence applications of saflufenacil” (Crop Prot, 2012).

Common to all, as to assay type: organism-based
In series [1] the test system is Capsicum annuum. Description: Toxicity against Capsicum annuum (pepper) assessed as crop injury at 420 g ai/ha pretransplant application. As to conditions: in vivo, other.
Series [2] deals with Solanum lycopersicum. Description: Toxicity against Solanum lycopersicum (tomato) H9909 assessed as reduction in plant dry weight at 100 g ai/ha pretransplant application measured at 28 days after crop transplanting. The arrangement: scale not given: the % may be the effect or the level left. As to conditions: in vivo, other, 672 h.
Series [3] relates to Solanum lycopersicum. Description: Toxicity against Solanum lycopersicum (tomato) H9909 assessed as decrease in crop injury at 100 g ai/ha pretransplant application measured at 28 days after crop transplanting. The arrangement: scale not given: the % may be the effect or the level left. The conditions noted are these: in vivo, other, 672 h.
Series [4] deals with Capsicum annuum. Put plainly: Toxicity against Capsicum annuum Socrates (pepper) assessed as reduction in plant dry weight at 100 g ai/ha pretransplant application measured at 28 days after crop transplanting. Also on record: scale not given: the % may be the effect or the level left. The conditions noted are these: in vivo, other, 672 h.
Series [5] concerns Capsicum annuum. Put plainly: Toxicity against Capsicum annuum Socrates (pepper) assessed as dose required to cause 5% visible injury applied within 3 days prior to transplantation measured at 28 days after crop transplanting. As to conditions: in vivo, 672 h.
In series [6] the test system is Solanum tuberosum. Description: Toxicity against Solanum tuberosum Superior (potato) assessed as reduction in plant dry weight at 100 g ai/ha preemergence application measured at 28 days after crop emergence. Also on record: scale not given: the % may be the effect or the level left. As to conditions: in vivo, other, 672 h.
In series [7] the test system is Capsicum annuum. Description: Toxicity against Capsicum annuum Socrates (pepper) assessed as dose required to cause 5% growth reduction applied within 3 days prior to transplantation measured at 28 days after crop transplanting. As to conditions: in vivo, 672 h.
The test system of series [8] is Solanum lycopersicum. Description: Toxicity against Solanum lycopersicum (tomato) H9909 assessed as dose required to cause 5% growth reduction applied within 3 days prior to transplantation measured at 28 days after crop transplanting. The conditions noted are these: in vivo, 672 h.
Series [9] has as its system Capsicum annuum. Put plainly: Toxicity against Capsicum annuum Socrates (pepper) assessed as decrease in crop injury at 100 g ai/ha pretransplant application measured at 28 days after crop transplanting. Also on record: scale not given: the % may be the effect or the level left. The conditions noted are these: in vivo, other, 672 h.
Series [10] relates to Solanum lycopersicum. Description: Toxicity against Solanum lycopersicum (tomato) H9909 assessed as dose required to cause 5% yield loss applied within 3 days prior to transplantation measured at maturity of the crop. The conditions noted are these: in vivo, 72 h.
For series [11], the system named is Solanum lycopersicum. Description: Toxicity against Solanum lycopersicum (tomato) H9909 assessed as dose required to cause 5% visible injury applied within 3 days prior to transplantation measured at 28 days after crop transplanting. The conditions noted are these: in vivo, 672 h.
For series [12], the system named is Solanum lycopersicum. Put plainly: Toxicity against Solanum lycopersicum (tomato) H9909 assessed as decrease in marketable yield at 100 g ai/ha pretransplant application measured at maturity of the crop. Also on record: scale not given: the % may be the effect or the level left. As to conditions: in vivo, other.
The subject of series [13] is Solanum tuberosum. Put plainly: Toxicity against Solanum tuberosum Superior (potato) assessed as dose required to cause 5% visible injury applied within 3 days after seeding measured at 28 days after crop emergence. As to conditions: in vivo, 672 h.
Series [14] deals with Solanum tuberosum. Description: Toxicity against Solanum tuberosum Superior (potato) assessed as decrease in marketable yield at 100 g ai/ha preemergence application measured at maturity of the crop. The arrangement: scale not given: the % may be the effect or the level left. The conditions noted are these: in vivo, other.
Series [15] has as its system Capsicum annuum. Put plainly: Toxicity against Capsicum annuum Socrates (pepper) assessed as dose required to cause 5% yield loss applied within 3 days prior to transplantation measured at maturity of the crop. The conditions noted are these: in vivo, 72 h.
Series [16] deals with Solanum tuberosum. Description: Toxicity against Solanum tuberosum Superior (potato) assessed as dose required to cause 5% yield loss applied within 3 days after seeding measured at maturity of the crop. As to conditions: in vivo, 72 h.
The test system of series [17] is Solanum tuberosum. Description: Toxicity against Solanum tuberosum Superior (potato) assessed as decrease in crop injury at 100 g ai/ha preemergence application measured at 28 days after crop emergence. The conditions noted are these: in vivo, other, 672 h. Also on record: scale not given: the % may be the effect or the level left.
Series [18] deals with Solanum tuberosum. Put plainly: Toxicity against Solanum tuberosum Superior (potato) assessed as dose required to cause 5% growth reduction applied within 3 days after seeding measured at 28 days after crop emergence. The conditions noted are these: in vivo.
In series [19] the test system is Capsicum annuum. Description: Toxicity against Capsicum annuum Socrates (pepper) assessed as decrease in marketable yield at 100 g ai/ha pretransplant application measured at maturity of the crop. Also on record: scale not given: the % may be the effect or the level left. The conditions noted are these: in vivo, other.

`Cc1nn(-c2cc(NS(C)(=O)=O)c(Cl)cc2Cl)c(=O)n1C(F)F` [SULFENTRAZONE]: in the series on Capsicum annuum [1], the Activity is listed as 65%.

As to `CC(C)N(C)S(=O)(=O)NC(=O)c1cc(-n2c(=O)cc(C(F)(F)F)n(C)c2=O)c(F)cc1Cl` [SAFLUFENACIL], the Activity is recorded as 73% in the series with Solanum lycopersicum [2]; 29% with Solanum lycopersicum [3]; 82% in the series with Capsicum annuum [4]; 15.4 gAi/ha in the series with Capsicum annuum [5]; 30% in the series on Solanum tuberosum [6]; 5.6 gAi/ha in the series with Capsicum annuum [7]. Further, the Activity with Solanum lycopersicum [8] amounted to 6.7 gAi/ha; with Capsicum annuum [9], 32%; in the series with Solanum lycopersicum [10], 8.8 gAi/ha; with Solanum lycopersicum [11] it was 17.5 gAi/ha; with Solanum lycopersicum [12], 57%; in the series on Solanum tuberosum [13], 105 gAi/ha. The Activity in the series with Solanum tuberosum [14] was determined as 18%; with Capsicum annuum [15] it was 7 gAi/ha; in the series on Solanum tuberosum [16], 19.7 gAi/ha; in the series on Solanum tuberosum [17], 5%; in the series with Solanum tuberosum [18], 15.5 gAi/ha; in the series with Capsicum annuum [19], 69%.
